# Laboratory results reported in patent publication US8691586B2 (priority 2006, dated 2014).
# Columns and labels:
# αHL pore = αHL pore (Staphylococcus aureus, UniProt P09616); format: biochemical, staphylococcal
# WT αHL = WT αHL (Staphylococcus aureus, UniProt P09616); format: biochemical, staphylococcal; conditions: pH 7
# [1] = molecular target: wild-type (WT) staphylococcal α-hemolysin (αHL) heptamer (Staphylococcus aureus, UniProt P09616); format: biochemical; conditions: pH 7
# Sequence of wild-type (WT) staphylococcal α-hemolysin (αHL) heptamer (P09616 27-319 limits assumed): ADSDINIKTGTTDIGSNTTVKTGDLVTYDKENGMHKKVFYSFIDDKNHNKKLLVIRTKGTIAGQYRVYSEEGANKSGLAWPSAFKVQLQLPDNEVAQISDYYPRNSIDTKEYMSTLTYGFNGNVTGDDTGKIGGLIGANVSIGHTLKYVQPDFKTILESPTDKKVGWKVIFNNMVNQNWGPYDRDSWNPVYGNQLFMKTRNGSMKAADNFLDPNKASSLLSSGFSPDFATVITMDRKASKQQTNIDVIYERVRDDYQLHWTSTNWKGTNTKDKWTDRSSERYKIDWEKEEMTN
# Sequence of αHL pore (P09616 27-319 limits assumed): as above
# Sequence of WT αHL (P09616 27-319 limits assumed): as above
substance,measurement,setting,value
γ-cyclodextrin [γCD],residence time (toff),αHL pore,421 ± 22 ms
same,ionic current blocked by transient binding to an αHL pore,WT αHL,around 60%
same,residence time (toff) for γCD bound to the αHL pore,[1],495 ± 51 ms
